Where two headings read alike, the source gives them in different places.
Target: T1, hTRPA1 (Homo sapiens, UniProt O75762, K186N)
T1 construct: expressed in transfected cells; host or cells: HEK293/TREx (Invitrogen), induced with tetracycline
Assay: High throughput Ca2+ fluorescence (Fluo4) assay, AITC stimulation
Type: cell-based
Source text: The assay depended on detection of the rise in intracellular Ca^2+ concentration ([Ca^2+]i) following channel activation in cells inducibly expressing the TRPA1 channel. Ca^2+ rise was quantified with the use of fluorescent Ca^2+ indicators that were loaded into cells and thereafter indicated the [Ca^2+]i. Ca^2+ influx followed activation of the TRPA1 channel. Compounds inhibiting the [Ca^2+]i rise were considered hits for further investigation.
These cells were maintained in the growth medium recommended by the manufacturer supplemented with 100 μg/ml hygromycin to promote retention of the TRPA1 construct. After growing to near confluency, cells were plated at a density of ˜25,000 cells/well in 384 well CellBind plates (Corning) in the presence of 1 μg/ml tetracycline, and allowed to grow for 20-30 hrs. A nearly confluent monolayer resulted. Cells were then loaded with Ca^2+ dye: Fura-2/AM or Fluo4/AM was added to the wells to a final concentration of 2 μM or 1 μM, respectively, and incubated for 80 min or 60 min, respectively, at room temperature. […] Frames were acquired at a rate of 0.2 Hz. During the assay, the plates were continuously […], with pipette mixing of wells following addition of each reagent. For the screening assay, 13 μl of a diluted stock (at 50 μM) was added to each well for 2 minutes following the collection of a short (4 frame) baseline. […] Data was collected for ˜3 minutes following addition of AITC, where the fluorescent intensity (for Fluo4) and the F340/F380 ratio (for Fura-2) were proportional to the [Ca^2+]i. Negative controls consisted of HEK293/TREx TRPA1 cells exposed to AITC, but no compound. […] These controls defined a screening window, and “hits” were defined as those compounds inhibiting the fluorescence response by at least 40%. IC50 values were determined for compounds defined as “hits.” The Fluo4 cell-based fluorescence assay was used to determine the intracellular Ca^2+ concentration in the presence of varying drug concentration. […] Compounds were tested in triplicate at all concentrations. Standard software was used to fit IC50 curves.

[1] = Table 1, read-out: hTRPA1 Fluo4 IC50
[2] = Table 2, read-out: hTRPA1 Fluor IC50

T1 sequence (O75762 whole entry K186N): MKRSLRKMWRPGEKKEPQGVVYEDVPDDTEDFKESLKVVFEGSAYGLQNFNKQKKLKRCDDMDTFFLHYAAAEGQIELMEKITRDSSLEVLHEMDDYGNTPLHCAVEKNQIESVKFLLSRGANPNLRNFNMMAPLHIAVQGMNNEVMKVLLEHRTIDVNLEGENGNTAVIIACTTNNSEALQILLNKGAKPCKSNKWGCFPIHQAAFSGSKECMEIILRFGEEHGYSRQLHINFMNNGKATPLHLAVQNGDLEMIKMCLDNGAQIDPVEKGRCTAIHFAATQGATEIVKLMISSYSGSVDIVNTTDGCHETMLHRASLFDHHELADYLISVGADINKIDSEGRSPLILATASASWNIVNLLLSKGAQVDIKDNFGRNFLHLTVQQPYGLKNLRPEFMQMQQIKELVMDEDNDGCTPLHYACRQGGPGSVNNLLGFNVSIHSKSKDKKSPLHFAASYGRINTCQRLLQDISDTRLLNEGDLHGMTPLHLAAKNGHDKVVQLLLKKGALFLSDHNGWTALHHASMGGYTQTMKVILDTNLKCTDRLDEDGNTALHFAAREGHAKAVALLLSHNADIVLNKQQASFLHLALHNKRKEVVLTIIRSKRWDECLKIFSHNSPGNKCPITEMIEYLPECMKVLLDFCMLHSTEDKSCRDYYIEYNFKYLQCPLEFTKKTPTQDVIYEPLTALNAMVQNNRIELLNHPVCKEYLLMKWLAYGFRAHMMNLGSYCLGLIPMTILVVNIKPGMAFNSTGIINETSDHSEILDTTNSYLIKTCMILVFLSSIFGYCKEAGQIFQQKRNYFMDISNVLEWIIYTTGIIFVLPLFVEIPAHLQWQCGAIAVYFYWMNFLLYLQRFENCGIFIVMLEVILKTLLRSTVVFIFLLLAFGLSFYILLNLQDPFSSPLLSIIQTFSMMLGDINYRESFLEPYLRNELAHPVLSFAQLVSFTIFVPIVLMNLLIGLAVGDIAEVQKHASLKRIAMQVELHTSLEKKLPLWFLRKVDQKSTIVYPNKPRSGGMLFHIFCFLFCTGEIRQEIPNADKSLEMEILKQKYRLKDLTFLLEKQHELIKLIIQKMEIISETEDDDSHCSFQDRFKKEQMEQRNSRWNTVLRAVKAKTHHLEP

SMILES | IC50 [1] [µM] | IC50 [2] [µM]
CC1=C(C(=O)OC(C)(C)C)C(c2ccc(Br)cc2)NC(=O)N1 (stereo not drawn) | > 10 | –
CC1=C(C(=O)OC(C)(C)C)C(c2cccc(Cl)c2)NC(=O)N1 (stereo not drawn) | > 10 | –
CCCOC(=O)C1=C(C)NC(=O)NC1c1ccccc1Br (stereo not drawn) | > 10 | –
CCCC1=C(C(=O)OCC)C(c2ccc([N+](=O)[O-])cc2)NC(=O)N1C (stereo not drawn) | > 10 | –
COC(=O)C1=C(C)NC(=O)NC1c1ccc(F)c(Br)c1 (stereo not drawn) | > 10 | –
CCCC1=C(C(=O)OCC)C(c2ccc(C(F)(F)F)cc2)NC(=O)N1C (stereo not drawn) | > 10 | –
CC1=C(C(=O)OC2CCCC2)C(c2ccccc2Br)NC(=O)N1 (stereo not drawn) | > 10 | –
CC1=C(C(=O)OC(C)C)C(c2ccc(C(C)(C)C)cc2)NC(=O)N1 (stereo not drawn) | > 10 | –
CC1=C(C(=O)OC(C)C)C(c2c(Cl)cccc2Cl)NC(=O)N1 (stereo not drawn) | > 10 | –
CC1=C(C(=O)OC(C)C)C(c2c(F)cccc2Cl)NC(=O)N1 (stereo not drawn) | > 10 | –
COC(=O)C1=C(C)N(C)C(=O)NC1c1cccc(C)c1 (stereo not drawn) | > 10 | –
COC(=O)C1=C(C)N(C)C(=O)NC1c1cccc(Cl)c1Cl (stereo not drawn) | > 10 | –
C=CCOC(=O)C1=C(C)NC(=O)NC1c1c(Cl)cccc1Cl (stereo not drawn) | > 10 | –
C=CCOC(=O)C1=C(C)NC(=O)NC1c1ccc(C(C)(C)C)cc1 (stereo not drawn) | > 10 | –
CC1=C(C(=O)OCc2ccccc2)C(c2ccc(C(C)C)cc2)NC(=O)N1 (stereo not drawn) | > 10 | –
C=CCOC(=O)C1=C(C)NC(=O)NC1c1c(F)cccc1Cl (stereo not drawn) | > 10 | –
CC1=C(C(=O)OCc2ccccc2)C(c2c(F)cccc2Cl)NC(=O)N1 (stereo not drawn) | > 10 | –
COC(=O)C1=C(C)NC(=S)NC1c1ccccc1C (stereo not drawn) | ≥ 30 | –
CC1=C(C(=O)N(C)C)C(c2ccccc2)NC(=S)N1 (stereo not drawn) | > 10 | –
COc1cccc(C2NC(=S)NC(C)=C2C(=O)N(C)C)c1OC (stereo not drawn) | > 10 | –
COc1cc(OC)c(C2NC(=S)NC(C)=C2C(=O)N(C)C)cc1Br (stereo not drawn) | > 10 | –

SMILES | IC50 [1] [µM] | IC50 [2] [µM]
COc1cc(Br)cc(C2NC(=S)NC(C)=C2C(=O)N(C)C)c1OC (stereo not drawn) | > 10 | –
CC1=C(C(=O)N(C)C)C(c2c(F)cccc2Cl)NC(=S)N1 (stereo not drawn) | > 10 | –
COc1cc2c(cc1C1NC(=S)NC(C)=C1C(=O)N(C)C)CCCC2 (stereo not drawn) | > 10 | –
CC1=C(C(=O)N(C)C)C(c2ccccc2F)NC(=S)N1 (stereo not drawn) | > 10 | –
CC1=C(C(=O)N(C)C)C(c2ccc(C)cc2)NC(=S)N1 (stereo not drawn) | > 10 | –
CC1=C(C(=O)OCC(C)C)C(c2c(F)cccc2Cl)NC(=O)N1C (stereo not drawn) | ≤ 10 | –
COCCOC(=O)C1=C(C)NC(=S)NC1c1ccc(C(C)C)cc1 (stereo not drawn) | > 10 | –
COC(=O)C1=C(C)N(C)C(=S)NC1c1ccccc1OC (stereo not drawn) | > 10 | –
CCN(CC)C(=O)C1=C(C)NC(=S)NC1c1ccccc1Cl (stereo not drawn) | > 10 | –
CCN(CC)C(=O)C1=C(C)NC(=S)NC1c1ccc(OC)cc1 (stereo not drawn) | > 10 | –
CCN(CC)C(=O)C1=C(C)NC(=S)NC1c1cc(C)c(OC)cc1C (stereo not drawn) | > 10 | –
CCN(CC)C(=O)C1=C(C)NC(=S)NC1c1cc(Br)cc(OC)c1OC (stereo not drawn) | > 10 | –
CCN(CC)C(=O)C1=C(C)NC(=S)NC1c1ccc(OC)cc1OC (stereo not drawn) | > 10 | –
CCN(CC)C(=O)C1=C(C)NC(=S)NC1c1ccc(C)cc1 (stereo not drawn) | > 10 | –
CCN(CC)C(=O)C1=C(C)NC(=S)NC1c1cc(OC)ccc1OC (stereo not drawn) | > 10 | –
COC(=O)C1=C(C)N(C)C(=S)NC1c1cccc(Cl)c1Cl (stereo not drawn) | ≤ 5 | –
COC(=O)C1=C(C)N(C)C(=O)NC1c1c(F)cccc1Cl (stereo not drawn) | > 10 | –
COC(=O)C1=C(CN2CCc3ccccc32)NC(=O)NC1c1cc(C)ccc1C (stereo not drawn) | > 10 | –
CCN(CC)C(=O)C1=C(C)NC(=O)NC1c1ccc(OC)c(Cl)c1 (stereo not drawn) | > 10 | –
CCNC(=O)Cn1cnc2c1c(=O)n(C)c(=O)n2C [Compound 216] | – | > 10
Cn1c(=O)c2c(ncn2CC(=O)NC2CCCC2)n(C)c1=O [Compound 218] | – | > 10

SMILES | IC50 [1] [µM] | IC50 [2] [µM]
CC(NC(=O)Cn1cnc2c1c(=O)n(C)c(=O)n2C)c1ccccc1 (stereo not drawn) [Compound 220] | – | > 10
Cn1c(=O)c2c(ncn2CC(=O)Nc2ccccc2Cl)n(C)c1=O [Compound 221] | – | > 10
Cc1ccc(NC(=O)Cn2cnc3c2c(=O)n(C)c(=O)n3C)c([N+](=O)[O-])c1 [Compound 222] | – | > 10
Cn1c(=O)c2c(ncn2CC(=O)Nc2cccc([N+](=O)[O-])c2)n(C)c1=O [Compound 223] | – | ≤ 10
Cc1cc([N+](=O)[O-])ccc1NC(=O)Cn1cnc2c1c(=O)n(C)c(=O)n2C [Compound 227] | – | ≥ 30
Cn1c(=O)c2c(ncn2CC(=O)Nc2cccc3ccccc23)n(C)c1=O [Compound 231] | – | > 10
Cn1c(=O)c2c(ncn2CC(=O)NCc2ccc(F)cc2)n(C)c1=O [Compound 238] | – | > 10
Cn1c(=O)c2c(ncn2CC(=O)NCCc2ccccn2)n(C)c1=O [Compound 241] | – | > 10
Cn1c(=O)c2c(ncn2CC(=O)NCc2ccncc2)n(C)c1=O [Compound 242] | – | > 10
Cn1c(=O)c2c(ncn2CC(=O)NCc2ccccn2)n(C)c1=O [Compound 243] | – | > 10
Cn1c(=O)c2c(ncn2CC(=O)Nc2ccc(F)c(F)c2)n(C)c1=O [Compound 245] | – | ≤ 10
Cn1c(=O)c2c(ncn2CC(=O)Nc2ccc3c(c2)OCCO3)n(C)c1=O [Compound 246] | – | > 10
Cn1c(=O)c2c(ncn2CC(=O)Nc2ccc(N3CCOCC3)cc2)n(C)c1=O [Compound 247] | – | ≤ 5
Cn1c(=O)c2c(ncn2CC(=O)Nc2ccccc2N2CCOCC2)n(C)c1=O [Compound 248] | – | > 10
COc1ccc(Nc2ccc(NC(=O)Cn3cnc4c3c(=O)n(C)c(=O)n4C)cc2)cc1 [Compound 249] | – | ≥ 20
COc1cc2c(cc1NC(=O)Cn1cnc3c1c(=O)n(C)c(=O)n3C)oc1ccccc12 [Compound 253] | – | > 10
CCn1c2ccccc2c2cc(NC(=O)Cn3cnc4c3c(=O)n(C)c(=O)n4C)ccc21 [Compound 254] | – | > 10
Cc1cc(NC(=O)Cn2cnc3c2c(=O)n(C)c(=O)n3C)n(-c2ccccc2)n1 [Compound 255] | – | ≥ 20
Cn1c(=O)c2c(ncn2CC(=O)NCCOC(=O)c2ccc(Cl)cc2)n(C)c1=O [Compound 256] | – | > 10
Cn1c(=O)c2c(ncn2CC(=O)Nc2ccccc2Cc2ccccc2)n(C)c1=O [Compound 258] | – | > 10
Cc1ccc(NC(=O)Cn2cnc3c2c(=O)n(C)c(=O)n3C)cc1 [Compound 259] | – | > 10

SMILES | IC50 [1] [µM] | IC50 [2] [µM]
Cn1c(=O)c2c(ncn2CC(=O)Nc2ccccc2-c2nc3ccccc3[nH]2)n(C)c1=O [Compound 260] | – | > 10
Cc1ccc(NC(=O)Cn2cnc3c2c(=O)n(C)c(=O)n3C)c(Cl)c1 [Compound 263] | – | > 10
Cc1ccc(NC(=O)Cn2cnc3c2c(=O)n(C)c(=O)n3C)c(Br)c1 [Compound 265] | – | ≥ 20
Cc1ccc(-c2csc(NC(=O)Cn3cnc4c3c(=O)n(C)c(=O)n4C)n2)cc1C [Compound 270] | – | > 10
Cc1cc(C)c(-c2csc(NC(=O)Cn3cnc4c3c(=O)n(C)c(=O)n4C)n2)c(C)c1 [Compound 272] | – | > 10
CC(C)N(c1ccccc1)c1ccc(NC(=O)Cn2cnc3c2c(=O)n(C)c(=O)n3C)cc1 [Compound 273] | – | ≤ 10
Cn1c(=O)c2c(ncn2CC(=O)NCc2cccc(C(F)(F)F)c2)n(C)c1=O [Compound 275] | – | > 10
Cn1c(=O)c2c(ncn2CC(=O)Nc2ccc(F)c(F)c2F)n(C)c1=O [Compound 276] | – | > 10
Cn1c(=O)c2c(ncn2CC(=O)NC2CCCCCCC2)n(C)c1=O [Compound 278] | – | > 10
CC1CCCCC1NC(=O)Cn1cnc2c1c(=O)n(C)c(=O)n2C (stereo not drawn) [Compound 279] | – | > 10
COc1ccc(NC(=O)Cn2cnc3c2c(=O)n(C)c(=O)n3C)cc1Cl [Compound 280] | – | ≤ 10
CSc1cccc(NC(=O)Cn2cnc3c2c(=O)n(C)c(=O)n3C)c1 [Compound 282] | – | ≤ 10
CCN(C(=O)Cn1cnc2c1c(=O)n(C)c(=O)n2C)c1ccccc1 [Compound 283] | – | > 10
Cn1c(=O)c2c(ncn2CC(=O)NCc2cccc(Cl)c2)n(C)c1=O [Compound 286] | – | > 10
Cc1sc(NC(=O)Cn2cnc3c2c(=O)n(C)c(=O)n3C)nc1-c1ccc(Cl)cc1 [Compound 287] | – | ≤ 10
Cn1c(=O)c2c(ncn2CC(=O)N(Cc2ccccc2)CC(F)(F)F)n(C)c1=O [Compound 288] | – | > 10
Cn1c(=O)c2c(ncn2CC(=O)NC(C)(C)C)n(C)c1=O [Compound 289] | – | > 10
COC(=O)c1cccc(NC(=O)Cn2cnc3c2c(=O)n(C)c(=O)n3C)c1 [Compound 290] | – | ≤ 10
CCN(C(=O)Cn1cnc2c1c(=O)n(C)c(=O)n2C)c1ccc(F)cc1 [Compound 291] | – | ≤ 5
Cc1ccc(NC(=O)NC(=O)Cn2cnc3c2c(=O)n(C)c(=O)n3C)c(C)c1 [Compound 292] | – | > 10
CN(CC(=O)Nc1ccc(F)c(F)c1F)C(=O)Cn1cnc2c1c(=O)n(C)c(=O)n2C [Compound 293] | – | > 10

From patent US7671061B2, “Methods and compositions for treating pain” (Hydra Biosciences, Inc., priority 2005, dated 2010)
